Assay results from ChEMBL document CHEMBL4507311, “Data for DCP probe A-1155463” (2021).

Legend:
[1] = biological target: Activin receptor type-1 (Homo sapiens) (UniProt Q04771); conditions: Compound concentration 1000.0 nM
[2] = biological target: Activin receptor type-2B (Homo sapiens) (UniProt Q13705); conditions: Compound concentration 1000.0 nM
[3] = biological target: Bone morphogenetic protein receptor type-1B (Homo sapiens) (UniProt O00238); conditions: Compound concentration 1000.0 nM
[4] = system: Serine/threonine-protein kinase B-raf (Homo sapiens), P15056 [V600E]; conditions: Compound concentration 1000.0 nM
[5] = biological target: Cyclin-dependent kinase 13 (Homo sapiens) (UniProt Q14004); conditions: Compound concentration 1000.0 nM
[6] = biological target: Cyclin-dependent kinase 3 (Homo sapiens) (UniProt Q00526); conditions: Compound concentration 1000.0 nM
Cyclin-dependent kinase 3 (Homo sapiens), sequence (Q00526 whole entry, looked up): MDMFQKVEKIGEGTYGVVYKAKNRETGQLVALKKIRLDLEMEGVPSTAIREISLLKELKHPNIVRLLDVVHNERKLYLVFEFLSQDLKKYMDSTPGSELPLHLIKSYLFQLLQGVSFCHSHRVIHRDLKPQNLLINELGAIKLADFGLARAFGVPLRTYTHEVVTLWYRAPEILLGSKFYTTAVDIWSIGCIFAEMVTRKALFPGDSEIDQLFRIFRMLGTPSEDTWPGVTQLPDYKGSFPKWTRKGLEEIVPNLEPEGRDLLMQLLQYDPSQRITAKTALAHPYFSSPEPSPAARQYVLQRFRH

[7] = biological target: Cyclin-dependent kinase 4 (Homo sapiens) (UniProt P11802); conditions: Compound concentration 1000.0 nM
Cyclin-dependent kinase 4 (Homo sapiens), sequence (P11802 whole entry): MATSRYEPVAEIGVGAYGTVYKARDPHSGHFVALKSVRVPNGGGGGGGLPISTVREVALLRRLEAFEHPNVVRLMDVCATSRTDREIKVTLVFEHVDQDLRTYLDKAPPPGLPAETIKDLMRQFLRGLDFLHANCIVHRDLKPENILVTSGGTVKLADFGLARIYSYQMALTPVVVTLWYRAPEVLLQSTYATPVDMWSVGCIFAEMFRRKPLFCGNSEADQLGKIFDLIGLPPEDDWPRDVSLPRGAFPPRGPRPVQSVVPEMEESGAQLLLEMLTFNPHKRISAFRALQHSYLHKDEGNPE

[8] = biological target: Cyclin-dependent kinase-like 3 (Homo sapiens) (UniProt Q8IVW4); conditions: Compound concentration 1000.0 nM
[9] = biological target: Citron Rho-interacting kinase (Homo sapiens) (UniProt O14578); conditions: Compound concentration 1000.0 nM
[10] = biological target: Casein kinase I isoform alpha (Homo sapiens) (UniProt P48729); conditions: Compound concentration 1000.0 nM
[11] = biological target: Death-associated protein kinase 2 (Homo sapiens) (UniProt Q9UIK4); conditions: Compound concentration 1000.0 nM
Death-associated protein kinase 2 (Homo sapiens), sequence (Q9UIK4 whole entry, looked up): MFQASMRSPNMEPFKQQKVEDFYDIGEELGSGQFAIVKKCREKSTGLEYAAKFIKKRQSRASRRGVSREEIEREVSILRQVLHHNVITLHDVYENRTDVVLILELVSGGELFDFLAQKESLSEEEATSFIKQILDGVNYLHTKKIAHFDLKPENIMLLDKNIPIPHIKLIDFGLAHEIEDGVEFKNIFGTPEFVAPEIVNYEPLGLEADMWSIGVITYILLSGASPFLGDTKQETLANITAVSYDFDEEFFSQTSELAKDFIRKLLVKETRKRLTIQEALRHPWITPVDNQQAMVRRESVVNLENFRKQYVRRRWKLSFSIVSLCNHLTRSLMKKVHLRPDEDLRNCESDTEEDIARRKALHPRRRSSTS

[12] = biological target: Serine/threonine-protein kinase DCLK1 (Homo sapiens) (UniProt O15075); conditions: Compound concentration 1000.0 nM
[13] = system: Epidermal growth factor receptor (Homo sapiens), P00533 [L858R,T790M]; conditions: Compound concentration 1000.0 nM
[14] = biological target: Ephrin type-B receptor 2 (Homo sapiens) (UniProt P29323); conditions: Compound concentration 1000.0 nM
[15] = biological target: Receptor tyrosine-protein kinase erbB-4 (Homo sapiens) (UniProt Q15303); conditions: Compound concentration 1000.0 nM
[16] = biological target: Tyrosine-protein kinase Fer (Homo sapiens) (UniProt P16591); conditions: Compound concentration 1000.0 nM
Tyrosine-protein kinase Fer (Homo sapiens), sequence (P16591 whole entry, looked up): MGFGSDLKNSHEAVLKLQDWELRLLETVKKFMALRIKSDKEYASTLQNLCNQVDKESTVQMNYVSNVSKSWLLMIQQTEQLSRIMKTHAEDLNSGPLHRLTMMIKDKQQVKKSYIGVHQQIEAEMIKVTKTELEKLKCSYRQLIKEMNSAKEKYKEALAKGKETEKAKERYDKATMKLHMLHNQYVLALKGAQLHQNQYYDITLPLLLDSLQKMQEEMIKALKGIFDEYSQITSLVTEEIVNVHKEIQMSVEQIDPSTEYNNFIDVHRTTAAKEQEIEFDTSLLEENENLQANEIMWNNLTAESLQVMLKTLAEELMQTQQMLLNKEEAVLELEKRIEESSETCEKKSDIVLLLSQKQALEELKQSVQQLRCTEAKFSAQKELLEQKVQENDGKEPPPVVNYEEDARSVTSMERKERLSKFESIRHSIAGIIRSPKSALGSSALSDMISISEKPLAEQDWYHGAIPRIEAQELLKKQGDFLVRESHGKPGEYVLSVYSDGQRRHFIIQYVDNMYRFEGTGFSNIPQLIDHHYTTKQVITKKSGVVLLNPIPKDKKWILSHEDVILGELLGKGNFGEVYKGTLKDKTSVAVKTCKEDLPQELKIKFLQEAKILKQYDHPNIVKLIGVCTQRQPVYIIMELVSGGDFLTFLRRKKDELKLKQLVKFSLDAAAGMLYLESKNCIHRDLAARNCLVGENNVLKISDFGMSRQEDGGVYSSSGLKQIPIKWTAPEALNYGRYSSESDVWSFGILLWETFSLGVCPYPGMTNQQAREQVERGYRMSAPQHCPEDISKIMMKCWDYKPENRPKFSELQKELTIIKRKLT

[17] = biological target: Fibroblast growth factor receptor 1 (Homo sapiens) (UniProt P11362); conditions: Compound concentration 1000.0 nM
[18] = system: Receptor-type tyrosine-protein kinase FLT3 (Homo sapiens), P36888 [K663Q]; conditions: Compound concentration 1000.0 nM
[19] = biological target: Tyrosine-protein kinase Fyn (Homo sapiens) (UniProt P06241); conditions: Compound concentration 1000.0 nM
[20] = biological target: Homeodomain-interacting protein kinase 4 (Homo sapiens) (UniProt Q8NE63); conditions: Compound concentration 1000.0 nM
[21] = biological target: Tyrosine-protein kinase ITK/TSK (Homo sapiens) (UniProt Q08881); conditions: Compound concentration 1000.0 nM
Tyrosine-protein kinase ITK/TSK (Homo sapiens), sequence (Q08881 whole entry): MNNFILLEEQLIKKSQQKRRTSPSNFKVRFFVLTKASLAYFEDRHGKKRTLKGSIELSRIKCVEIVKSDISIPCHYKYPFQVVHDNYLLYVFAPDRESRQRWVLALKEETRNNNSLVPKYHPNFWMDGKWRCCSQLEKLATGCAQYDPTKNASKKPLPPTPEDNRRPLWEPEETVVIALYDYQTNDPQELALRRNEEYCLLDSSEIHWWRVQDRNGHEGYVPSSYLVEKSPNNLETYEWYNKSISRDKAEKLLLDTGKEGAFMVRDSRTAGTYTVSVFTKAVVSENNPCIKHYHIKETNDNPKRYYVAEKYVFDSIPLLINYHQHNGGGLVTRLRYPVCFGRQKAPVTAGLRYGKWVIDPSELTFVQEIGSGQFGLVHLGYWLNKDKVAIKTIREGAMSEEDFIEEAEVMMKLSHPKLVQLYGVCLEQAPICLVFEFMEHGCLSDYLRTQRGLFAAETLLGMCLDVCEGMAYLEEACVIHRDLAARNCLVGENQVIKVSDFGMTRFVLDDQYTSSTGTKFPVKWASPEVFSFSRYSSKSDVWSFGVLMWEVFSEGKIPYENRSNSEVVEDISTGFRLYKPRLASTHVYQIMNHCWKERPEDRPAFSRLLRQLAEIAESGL

[22] = biological target: Tyrosine-protein kinase JAK2 (Homo sapiens) (UniProt O60674); conditions: Compound concentration 1000.0 nM
[23] = biological target: MAP kinase-activated protein kinase 5 (Homo sapiens) (UniProt Q8IW41); conditions: Compound concentration 1000.0 nM
MAP kinase-activated protein kinase 5 (Homo sapiens), sequence (Q8IW41 whole entry): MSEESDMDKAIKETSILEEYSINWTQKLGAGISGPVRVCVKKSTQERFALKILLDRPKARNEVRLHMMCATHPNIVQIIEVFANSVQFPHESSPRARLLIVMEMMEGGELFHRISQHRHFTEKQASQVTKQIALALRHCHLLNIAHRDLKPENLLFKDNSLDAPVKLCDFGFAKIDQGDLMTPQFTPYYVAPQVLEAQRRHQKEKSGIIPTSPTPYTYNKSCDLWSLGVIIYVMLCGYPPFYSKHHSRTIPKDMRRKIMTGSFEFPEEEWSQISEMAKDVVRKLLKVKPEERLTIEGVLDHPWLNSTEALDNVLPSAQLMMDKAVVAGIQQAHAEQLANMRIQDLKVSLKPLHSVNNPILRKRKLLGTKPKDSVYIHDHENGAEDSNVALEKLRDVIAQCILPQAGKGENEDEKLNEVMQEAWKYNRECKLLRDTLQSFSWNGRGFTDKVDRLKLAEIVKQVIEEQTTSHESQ

[24] = biological target: Mitogen-activated protein kinase kinase kinase 9 (Homo sapiens) (UniProt P80192); conditions: Compound concentration 1000.0 nM
[25] = biological target: Serine/threonine-protein kinase Nek1 (Homo sapiens) (UniProt Q96PY6); conditions: Compound concentration 1000.0 nM
Serine/threonine-protein kinase Nek1 (Homo sapiens), sequence (Q96PY6 whole entry, canonical isoform): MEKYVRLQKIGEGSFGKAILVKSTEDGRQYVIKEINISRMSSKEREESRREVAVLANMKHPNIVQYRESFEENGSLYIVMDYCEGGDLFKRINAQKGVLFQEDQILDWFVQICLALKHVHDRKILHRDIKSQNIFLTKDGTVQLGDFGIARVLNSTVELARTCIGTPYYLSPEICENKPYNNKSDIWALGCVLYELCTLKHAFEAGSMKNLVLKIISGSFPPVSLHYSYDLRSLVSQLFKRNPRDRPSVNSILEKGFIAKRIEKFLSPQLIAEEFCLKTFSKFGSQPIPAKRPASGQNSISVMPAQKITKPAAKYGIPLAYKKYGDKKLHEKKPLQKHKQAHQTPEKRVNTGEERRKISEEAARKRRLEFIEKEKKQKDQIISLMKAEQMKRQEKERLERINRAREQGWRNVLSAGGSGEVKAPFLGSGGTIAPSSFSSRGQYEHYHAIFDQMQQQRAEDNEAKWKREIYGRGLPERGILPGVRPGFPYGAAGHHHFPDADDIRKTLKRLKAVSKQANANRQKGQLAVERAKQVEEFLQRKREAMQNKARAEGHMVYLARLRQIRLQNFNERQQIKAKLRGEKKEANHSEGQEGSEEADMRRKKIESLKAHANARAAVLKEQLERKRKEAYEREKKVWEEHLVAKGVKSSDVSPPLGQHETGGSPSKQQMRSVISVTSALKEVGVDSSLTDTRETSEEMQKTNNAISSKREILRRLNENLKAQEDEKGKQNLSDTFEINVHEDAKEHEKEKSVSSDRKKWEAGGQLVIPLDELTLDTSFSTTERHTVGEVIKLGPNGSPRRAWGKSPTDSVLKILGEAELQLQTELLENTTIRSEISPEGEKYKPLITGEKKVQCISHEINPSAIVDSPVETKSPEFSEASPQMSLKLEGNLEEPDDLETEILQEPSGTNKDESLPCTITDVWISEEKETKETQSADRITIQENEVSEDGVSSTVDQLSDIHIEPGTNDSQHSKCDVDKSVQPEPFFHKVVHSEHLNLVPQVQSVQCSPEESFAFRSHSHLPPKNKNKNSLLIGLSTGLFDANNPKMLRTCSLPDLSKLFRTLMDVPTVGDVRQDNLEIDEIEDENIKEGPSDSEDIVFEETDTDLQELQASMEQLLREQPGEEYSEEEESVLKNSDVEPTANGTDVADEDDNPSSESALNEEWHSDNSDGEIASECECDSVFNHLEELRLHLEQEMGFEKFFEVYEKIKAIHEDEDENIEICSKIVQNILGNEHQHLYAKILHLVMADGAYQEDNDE

[26] = system: Phosphatidylinositol 4,5-bisphosphate 3-kinase catalytic subunit alpha isoform (Homo sapiens), P42336 [E545K]; conditions: Compound concentration 1000.0 nM
[27] = biological target: Membrane-associated tyrosine- and threonine-specific cdc2-inhibitory kinase (Homo sapiens) (UniProt Q99640); conditions: Compound concentration 1000.0 nM
[28] = biological target: cGMP-dependent protein kinase 2 (Homo sapiens) (UniProt Q13237); conditions: Compound concentration 1000.0 nM
cGMP-dependent protein kinase 2 (Homo sapiens), sequence (Q13237 whole entry): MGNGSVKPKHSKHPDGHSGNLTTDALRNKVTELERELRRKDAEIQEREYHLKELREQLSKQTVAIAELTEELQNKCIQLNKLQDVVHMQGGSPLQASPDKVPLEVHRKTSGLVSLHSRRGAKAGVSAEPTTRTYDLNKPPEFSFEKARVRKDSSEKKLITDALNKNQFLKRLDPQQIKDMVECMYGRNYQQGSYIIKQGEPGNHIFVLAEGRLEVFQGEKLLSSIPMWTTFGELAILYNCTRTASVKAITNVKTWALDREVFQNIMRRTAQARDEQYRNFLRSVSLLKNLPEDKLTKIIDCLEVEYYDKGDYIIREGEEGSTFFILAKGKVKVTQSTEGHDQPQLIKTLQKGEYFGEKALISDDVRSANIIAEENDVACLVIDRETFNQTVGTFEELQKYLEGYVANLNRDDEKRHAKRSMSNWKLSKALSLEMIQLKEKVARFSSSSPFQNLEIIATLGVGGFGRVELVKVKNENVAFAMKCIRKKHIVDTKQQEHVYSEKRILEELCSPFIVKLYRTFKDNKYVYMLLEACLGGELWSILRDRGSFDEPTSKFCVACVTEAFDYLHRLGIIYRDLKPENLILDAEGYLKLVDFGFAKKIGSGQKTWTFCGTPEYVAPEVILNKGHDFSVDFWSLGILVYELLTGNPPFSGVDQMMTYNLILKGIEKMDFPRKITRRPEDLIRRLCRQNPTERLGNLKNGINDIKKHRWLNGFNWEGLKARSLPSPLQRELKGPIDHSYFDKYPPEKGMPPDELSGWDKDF

[29] = biological target: Serine/threonine-protein kinase SIK3 (Homo sapiens) (UniProt Q9Y2K2); conditions: Compound concentration 1000.0 nM
[30] = biological target: Ribosomal protein S6 kinase alpha-1 (Homo sapiens) (UniProt Q15418); conditions: Compound concentration 1000.0 nM
[31] = biological target: SRSF protein kinase 2 (Homo sapiens) (UniProt P78362); conditions: Compound concentration 1000.0 nM
[32] = biological target: Serine/threonine-protein kinase TAO2 (Homo sapiens) (UniProt Q9UL54); conditions: Compound concentration 1000.0 nM
[33] = biological target: Serine/threonine-protein kinase TAO3 (Homo sapiens) (UniProt Q9H2K8); conditions: Compound concentration 1000.0 nM
[34] = biological target: Angiopoietin-1 receptor (Homo sapiens) (UniProt Q02763); conditions: Compound concentration 1000.0 nM
[35] = biological target: Serine/threonine-protein kinase TNNI3K (Homo sapiens) (UniProt Q59H18); conditions: Compound concentration 1000.0 nM
[36] = biological target: Serine/threonine-protein kinase 25 (Homo sapiens) (UniProt O00506); conditions: Compound concentration 1000.0 nM
[37] = biological target: 5-hydroxytryptamine receptor 2A (Homo sapiens) (UniProt P28223); conditions: Compound concentration 10.0 uM
[38] = biological target: T1, 5-hydroxytryptamine receptor 3A (Homo sapiens) (UniProt P46098); conditions: Compound concentration 10.0 uM
T1 sequence (whole entry): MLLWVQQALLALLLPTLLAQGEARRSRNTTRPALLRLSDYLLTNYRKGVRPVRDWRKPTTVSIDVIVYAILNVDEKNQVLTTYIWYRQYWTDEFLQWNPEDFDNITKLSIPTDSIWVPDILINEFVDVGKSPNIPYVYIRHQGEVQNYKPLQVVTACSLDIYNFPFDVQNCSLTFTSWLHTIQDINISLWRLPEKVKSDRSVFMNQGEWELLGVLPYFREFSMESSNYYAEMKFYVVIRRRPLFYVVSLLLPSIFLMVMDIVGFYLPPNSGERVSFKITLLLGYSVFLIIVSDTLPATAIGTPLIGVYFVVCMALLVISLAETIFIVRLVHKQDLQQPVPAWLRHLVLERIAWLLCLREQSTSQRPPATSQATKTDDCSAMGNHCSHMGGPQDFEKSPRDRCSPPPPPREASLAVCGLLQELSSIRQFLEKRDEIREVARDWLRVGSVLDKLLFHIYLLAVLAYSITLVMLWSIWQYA

[39] = biological target: D(1B) dopamine receptor (Homo sapiens) (UniProt P21918); conditions: Compound concentration 10.0 uM

Question: What does the source list for `CN(C)CC#Cc1ccc(OCCCc2sc(N3CCc4cccc(C(=O)Nc5nc6ccccc6s5)c4C3)nc2C(=O)O)c(F)c1` [A-1155463]?
Answer: residual activity [1]: 100%; residual activity [2]: 100%; residual activity [3]: 84%; residual activity [4]: 79%; residual activity [5]: 100%; residual activity [6]: 68%; residual activity [7]: 100%; residual activity [8]: 100%; residual activity [9]: 77%; residual activity [10]: 71%; residual activity [11]: 90%; residual activity [12]: 72%; residual activity [13]: 100%; residual activity [14]: 100%; residual activity [15]: 99%; residual activity [16]: 100%; residual activity [17]: 100%; residual activity [18]: 100%; residual activity [19]: 96%; residual activity [20]: 100%; residual activity [21]: 100%; residual activity [22]: 100%; residual activity [23]: 99%; residual activity [24]: 92%; residual activity [25]: 100%; residual activity [26]: 95%; residual activity [27]: 71%; residual activity [28]: 86%; residual activity [29]: 77%; residual activity [30]: 93%; residual activity [31]: 100%; residual activity [32]: 100%; residual activity [33]: 100%; residual activity [34]: 100%; residual activity [35]: 100%; residual activity [36]: 100%; inhibition [37]: 40.1%; inhibition [38]: 85.4%; inhibition [39]: 40.8%
